Data as given in US20120065231A1, “THIOPHENE DERIVATIVE” (SUMITOMO CHEMICAL COMPANY LTD., priority 2009, published 2012).
Like-named read-outs stand apart in the source and are kept apart here.

Assays:
[1] = Test of S9 metabolism stability in human; format: in vitro ADME; conditions: human S9, NADPH, 37° C., reaction time 30 min
Experimental: (§1) For the inventive compound, was carried out test of a S9 metabolism stability in human, rat and mouse.
(§2) Using MINISORP(75×12) NUNC-IMMUNO tube, a 0.5 μM I.S.-added reaction stopping solution (500 μL) and a 10 mmol/L NADPH solution (50 μL) were mixed. Subsequently, a S9 mixture (445 μL) and pure water (5 μL) were added to prepare an I.S.-added blank sample. Likewise, a S9 mixture (445 μL) and a 100 μM test substance solution (5 μL) were added, preparing an calibration curve sample.
(§3) A S9 mixture (1068 μL) was dispensed into MINISORP (75×12) NUNC-IMMUNO tube. On ice water, a 100 μM test substance solution (12 μL) was added, and pre-incubation was carried out at 37° C. for 5 minutes. An aliquot (450 μL) of this was fractionated, and a […] I.S.-added reaction stopping solution (500 μL) and a 10 mmol/L NADPH solution (50 μL) were added, to obtain an unreacted sample (reaction time; 0 min). To the residue after fractionation, a 10 mmol/L NADPH solution (70 μL) was added, and incubation was carried out at 37° C. for 30 minutes, and an aliquot (500 μL) was fractionated, then, a 0.5 μM I.S.-added reaction stopping solution (500 μL) was added, preparing a reacted sample (reaction time; 30 min). […]

[2] = Test of S9 metabolism stability in mouse; format: in vitro ADME; conditions: mouse S9, NADPH, 37° C., reaction time 30 min
Experimental: as §1, §2, §3

[3] = Test of S9 metabolism stability in rat; format: in vitro ADME; conditions: rat S9, NADPH, 37° C., reaction time 30 min
Experimental: as §1, §2, §3

androgen receptor = target: T1, androgen receptor (Homo sapiens, UniProt P10275, DEL75-80/DUP470-473); assay: Androgen receptor agonist activity by reporter gene assay method; format: cell-based
T1 construct: expressed in transfected cells; host or cells: human-derived CHP212 cells, stably transformed with pGL3-TATA-3xARE and pRC/RSV-hAR Kozak
T1 sequence (P10275 with tags, fused parts or gaps DEL75-80/DUP470-473): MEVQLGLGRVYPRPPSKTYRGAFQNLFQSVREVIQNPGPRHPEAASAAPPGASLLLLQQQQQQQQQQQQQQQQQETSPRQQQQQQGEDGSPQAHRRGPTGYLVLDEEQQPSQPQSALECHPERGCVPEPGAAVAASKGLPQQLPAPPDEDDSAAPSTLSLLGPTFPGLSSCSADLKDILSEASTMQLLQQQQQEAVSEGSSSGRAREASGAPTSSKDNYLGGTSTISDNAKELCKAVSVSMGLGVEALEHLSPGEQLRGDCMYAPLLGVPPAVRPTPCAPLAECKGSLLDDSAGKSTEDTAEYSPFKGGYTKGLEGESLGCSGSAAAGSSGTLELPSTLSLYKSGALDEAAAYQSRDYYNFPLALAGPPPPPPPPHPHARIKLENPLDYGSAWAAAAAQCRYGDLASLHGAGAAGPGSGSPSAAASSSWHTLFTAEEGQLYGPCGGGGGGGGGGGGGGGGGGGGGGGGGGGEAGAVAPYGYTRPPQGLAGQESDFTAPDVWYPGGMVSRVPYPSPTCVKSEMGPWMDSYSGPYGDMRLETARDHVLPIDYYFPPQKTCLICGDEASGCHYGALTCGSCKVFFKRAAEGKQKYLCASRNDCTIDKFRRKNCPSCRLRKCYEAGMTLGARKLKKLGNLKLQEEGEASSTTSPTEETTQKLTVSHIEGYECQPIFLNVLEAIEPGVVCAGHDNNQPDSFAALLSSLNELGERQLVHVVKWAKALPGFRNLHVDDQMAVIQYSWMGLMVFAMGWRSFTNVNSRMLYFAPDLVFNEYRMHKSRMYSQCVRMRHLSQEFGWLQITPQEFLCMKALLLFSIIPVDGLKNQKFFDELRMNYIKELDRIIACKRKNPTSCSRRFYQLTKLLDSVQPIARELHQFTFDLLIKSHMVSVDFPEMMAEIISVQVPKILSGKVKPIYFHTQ
Experimental: After shaking for 10 minutes, the luciferase activity was measured by EnVision 2103 Multilabel Reader (PerkinElmer Co., Ltd.).

[4] = agonist activity, transformed human-derived CHP212 cells with pGL3-TATA-3×ARE luciferase reporter and pRC/RSV-hAR Kozak, 24 hours, read-out: EC50

| EC50 (androgen receptor; [4]) [nM] | SMILES | also measured |
| --- | --- | --- |
| 14 | N#Cc1sc(N2CCCCC2C(O)C(F)(F)F)cc1Br (racemic) [Example 40, 3-bromo-5-[2-(2,2,2-trifluoro-1-hydroxyethyl)piperidin-1-yl]thiophene-2-carbonitrile] | – |
| 1600 | COCCN(CCOC)c1cc(Br)c(C#N)s1 [Example 16, 5-[bis(2-methoxyethyl)amino]-3-bromothiophene-2-carbonitrile] | – |
| 4.9 | CCC1CCCCN1c1cc(Br)c(C#N)s1 (stereo not drawn) [Example 17, 3-bromo-5-(2-ethylpiperidin-1-yl)thiophene-2-carbonitrile] | – |
| 36.2 | CCCC1CCCCN1c1cc(Br)c(C#N)s1 (stereo not drawn) [Example 18, 3-bromo-5-(2-propylpiperidin-1-yl)thiophene-2-carbonitrile] | – |
| > 10000 | CCCN(CC(=O)OCC)c1cc(Br)c(C#N)s1 [Example 24, N-(4-bromo-5-cyanothiophen-2-yl)-N-propylglycine ethyl ester] | – |
| > 10000 | CCCN(CC(=O)O)c1cc(Br)c(C#N)s1 [Example 26, N-(4-bromo-5-cyanothiophen-2-yl)-N-propylglycine] | – |
| 580 | CCCN(CC#N)c1cc(Br)c(C#N)s1 [Example 28, 3-bromo-5-[(cyanomethyl)(propyl)amino]thiophene-2-carbonitrile] | – |
| > 10000 | CCCN(CC=O)c1cc(Br)c(C#N)s1 [Example 32, 3-bromo-5-[(2-oxoethyl)(propyl)amino]thiophene-2-carbonitrile] | – |
| > 10000 | CCC1CCCC(=O)N1c1cc(Br)c(C#N)s1 (stereo not drawn) [Example 35, 3-bromo-5-(2-ethyl-6-oxopiperidin-1-yl)thiophene-2-carbonitrile] | – |
| 560 | CC(O)C1CCCCN1c1cc(Br)c(C#N)s1 (stereo not drawn) [Example 41, 3-bromo-5-[2-(1-hydroxyethyl)piperidin-1-yl]thiophene-2-carbonitrile] | – |
| 1500 | N#Cc1sc(N2CCCCC2C#N)cc1Br (stereo not drawn) [Example 47, 5-(2-cyanopiperidin-1-yl)-3-bromo-thiophene-2-carbonitrile] | – |

Second part, the molecule before the results:

| SMILES | EC50 (androgen receptor; [4]) [nM] | also measured |
| --- | --- | --- |
| N#Cc1sc(N2CCCCC2C(O)C(F)(F)F)cc1Br (stereo not drawn) | – | Residual ratio (%) human [1]: 73.4%; Residual ratio (%) mouse [2]: 39.1%; Residual ratio (%) rat [3]: 40.1% |
| CCCN(CC1CC1)c1cc(Br)c(C=O)s1 [Example 1, 3-bromo-5-[(cyclopropylmethyl)(propyl)amino]thiophene-2-carbaldehyde] | > 10000 | – |
| CCCN(CC1CC1)c1cc(Br)c(C#N)s1 [Example 2, 3-bromo-5-[(cyclopropylmethyl)(propyl)amino]thiophene-2-carbonitrile] | 10.6 | – |
| CCCN(CC1CC1)c1cc(C(F)(F)F)c(C#N)s1 [Example 5, 5-[(cyclopropylmethyl)(propyl)amino]-3-(trifluoromethyl)thiophene-2-carbonitrile] | – | EC50 (androgen receptor): 11.9 nM |
| CCCN(CC1CC1)c1cc(C#N)c(C(F)(F)F)s1 [Example 7, 5-[(cyclopropylmethyl)(propyl)amino]-2-(trifluoromethyl)thiophene-3-carbonitrile] | – | EC50 (androgen receptor): 99.3 nM |
| N#Cc1sc(N2CCCC2)cc1Br [Example 8, 3-bromo-5-(pyrrolidin-1-yl)thiophene-2-carbonitrile] | 1400 | – |
| CC1CCCCN1c1cc(Br)c(C#N)s1 (stereo not drawn) [Example 9, 3-bromo-5-(2-methylpiperidin-1-yl)thiophene-2-carbonitrile] | 450 | – |
| CC1CCN(c2cc(Br)c(C#N)s2)CC1 [Example 12, 3-bromo-5-(4-methylpiperidin-1-yl)thiophene-2-carbonitrile] | 1500 | – |
| CC(C)CN(C)c1cc(Br)c(C#N)s1 [Example 13, 3-bromo-5-[(methyl)(2-methylpropyl)amino]thiophene-2-carbonitrile] | 1200 | – |
| CCCN(CCC)c1cc(Br)c(C#N)s1 [Example 14, 3-bromo-5-(dipropylamino)thiophene-2-carbonitrile] | 43.3 | – |
| C=CCN(CC=C)c1cc(Br)c(C#N)s1 [Example 15, 3-bromo-5-(diallylamino)thiophene-2-carbonitrile] | 13.1 | – |
| CCCN(CC(F)(F)F)c1cc(Br)c(C#N)s1 [Example 23, 3-bromo-5-[(propyl)(2,2,2-trifluoroethyl)amino]thiophene-2-carbonitrile] | – | EC50 (androgen receptor): 5.4 nM |
| CCCN(CC(=O)NC)c1cc(Br)c(C#N)s1 [Example 25, N2-(4-bromo-5-cyanothiophen-2-yl)-N-methyl-N2-propylglycinamide] | 1500 | – |
| CCCN(CC1OCCO1)c1cc(Br)c(C#N)s1 [Example 31, 3-bromo-5-[(1,3-dioxolan-2-ylmethyl)(propyl)amino]thiophene-2-carbonitrile] | 750 | – |
| N#Cc1sc(N2CCCCC2C(O)C(F)(F)F)cc1C(F)(F)F (stereo not drawn) [Example 43, 5-[2-(2,2,2-trifluoro-1-hydroxyethyl)piperidin-1-yl]-3-trifluoromethyl-thiophene-2-carbonitrile] | – | EC50 (androgen receptor): > 10000 nM |
| CCCN(CC(F)(F)F)c1cc(C(F)(F)F)c(C#N)s1 [Example 45, 5-[(propyl)(2,2,2-trifluoroethyl)amino]-3-trifluoromethylthiophene-2-carbonitrile] | – | EC50 (androgen receptor): 3.1 nM |
| CCCN(CC(F)(F)F)c1cc(C)c(C#N)s1 [Example 46, 5-[(propyl)(2,2,2-trifluoroethyl)amino]-3-methylthiophene-2-carbonitrile] | – | EC50 (androgen receptor): 25.2 nM |
